Data published in patent US20240010998A1, “FLAVONE 4'-O-METHYLTRANSFERASE GENE AND USE FOR SAME” (SUNTORY HOLDINGS LIMITED, priority 2020, published 2024).

Key:
[1] = Simulation of flavone C-glycoside copigment effect with anthocyanin (malvin): absorption spectrum; type: physicochemical; details: for Absorption maximum of malvin solution upon addition of flavone C-glycoside (λmax): flavone C-glycoside added at 10-equivalent molar concentration to 0.5 mM malvin
Description: An anthocyanin (malvin) and flavone C-glycoside were prepared to simulate the copigment effect of the flavone C-glycoside on malvin. The malvin (malvidin 3,5-diglucoside) and flavone C-glycosides (isovitexin (apigenin 6-C-glucoside), isoorientin (luteolin 6-C-glucoside) and swertisin (genkwanin 6-C-glucoside) used in the experiments were purchased from Nacalai Tesque, Inc. Embigenin (7,4′-dimethoxyisovitexin) was prepared by artificial organic synthesis from isovitexin. Each flavone C-glycoside (isovitexin, isoorientin, swertisin or embigenin) was added to the malvin at 10-equivalent molar concentration in a buffering solution at pH 5.0, and the absorption spectrum was measured. The malvin concentration was 0.5 mM.

[2] = test system: DN144 (IjFn-4′OMT); assay: Enzyme activity measurement with crude protein solution extract from E. coli expressing DN144; type: biochemical, fringed iris (Iris japonica); details: flavone substrate; for Produced compound: SAM, 30 minutes at 30° C., HPLC detection at 330 nm
Description: With DN144 as a candidate protein having activity of transferring a methyl group to the 4′-position hydroxyl group of flavone C-glycoside, and using pET15b (Novagen), an E. coli expression vector pSPB7942 containing the full-length of DN144 was constructed according to the manufacturer's recommended protocol.
Vector pSPB7942 was introduced into E. coli BL21(DE3) (New England Biolabs Japan Inc) by the manufacturer's recommended protocol, to obtain E. coli transformants. The E. coli were cultured using an Overnight Express Autoinduction System 1 (Novagen), according to the manufacturer's recommended protocol. The E. coli transformants were cultured at 37° C. (approximately 4 hours) with 2 mL of prepared culture solution, to an OD600 value of 0.5. The E. coli solution was added as a preculturing solution to 50 mL of culture solution, and main culturing was carried out for two nights at 16° C. The E. coli solution cultured for two nights was centrifuged (3,000 rpm, 4° C., 15 minutes), and the collected cells were suspended in sonic buffer (composition: 40 mM KPB (pH7.5), 1 mM dithiothreitol. 50 μM amidinophenylmethanesulfonyl fluoride hydrochloride, 500 μM ethylenediaminetetraacetic acid. 2 mM MgCl2, 1 μM S-adenosylmethionine (SAM)). A 5 mL portion of sonic buffer was added for each 1 g of E. coli. The suspended E. coli cells were crushed by ultrasonic treatment and then centrifuged (15,000 rpm, 4° C., 10 minutes), and the supernatant was recovered. The supernatant was used as a crude protein solution extract from E. coli expressing DN144. A TOMY MX-307 (rotor: AR015-24) was used for centrifugal separation (Tomy Seiko Co., Ltd.).
The substrates used for activity measurement were apigenin, apigenin 7-glucoside, isovitexin 2″-rhamnoside, saponarin (isovitexin 4′-glucoside), swertisin, luteolin, luteolin 7-glucoside, isoorientin, swertiajapanin (isoorientin 7-methyl ether), delphinidin 3-glucoside, delphinidin 3,5-diglucoside and malvidin 3,5-diglucoside. A mixture of 8 μL of each 1 mM substrate (50% acetonitrile aqueous solution containing 0.1% TFA), 20 μL of 10 mM SAM, 10 μL of 1 M KPB (pH 7.5) and 20 μL of 10 mM MgCl2 adjusted to 58 μL was kept at 30° C. for 10 minutes, and then 42 μL of crude protein solution extract from DN144-expressing E. coli was added for enzyme reaction (30 minutes at 30° C.). Next, 100 μL of stop buffer (aqueous 90% acetonitrile solution containing TFA) was added to stop the enzyme reaction, and the enzyme reaction solution was analyzed by high-performance liquid chromatography (LC-2030C by Shimadzu Corp.). Detection was at 330 nm using a Shimadzu PDA SPD-M20A as the detector. The column used as a Shim-Pack FC-ODS 150 mm*4.6 min (Shimadzu GLC). Elution was performed using solution A (0.1% TFA aqueous solution) and solution B (aqueous 90% acetonitrile solution containing 0.1% TFA). The elution was with a 20-minute linear concentration Gradient from a 9:1 mixture to a 8:2 mixture, a 15-minute linear concentration gradient from a 8:2. mixture to a 2:8 mixture and a 5-minute linear concentration gradient from a 2:8 mixture to a 0:10 mixture, followed by elution with a 0:10 mixture for 1 minute. The flow rate was 0.6 mL/min. As a control, the same experiment was carried out using a crude protein solution extract from E. coli in which pET15b vector without the insert had been introduced. As a result, compounds were detected in the enzyme reaction solutions obtained by reacting the 10 different flavones with the crude protein solution extract from the DN144-expressing E. coli. […] With reaction of the 3 different anthocyanins, no peaks were detected other than for the substrates in the enzyme reaction solution. When enzyme reaction was conducted using an anthocyanin substrate, the enzyme reaction conditions were 30° C., 15 minutes, and an aqueous 90% acetonitrile solution containing 0.1% TFA and 0.24 N hydrochloric acid was used as the stop buffer. […]

Row | Absorption maximum of malvin solution upon addition of flavone C-glycoside (λmax) ([1]; buffering solution pH 5.0) | Molecule | Methyltransferase activity of DN144 for the substrate [2] | further results
1 | 578 nm | O=c1cc(-c2ccc(O)cc2)oc2cc(O)c([C@@H]3O[C@H](CO)[C@@H](O)[C@H](O)[C@H]3O)c(O)c12 [Isovitexin, apigenin 6-C-glucoside] |  | Produced compound [2]: Isocytisoside; Produced compound ([2]; listed as isovitexin): conversion to isocytisoside was confirmed
2 |  | isovitexin 2″-rhamnoside | strong methyltransferase activity | 
3 | 581 nm | COc1ccc(-c2cc(=O)c3c(O)c([C@@H]4O[C@H](CO)[C@@H](O)[C@H](O)[C@H]4O)c(OC)cc3o2)cc1 [Embigenin, 7,4′-dimethoxyisovitexin] |  | Copigment effect with respect to malvin (absorbance increase, shift of absorption maximum toward long wavelength end) ([1]; 10-equivalent flavone C-glycoside, 0.5 mM malvin, pH 5.0): highest copigment effect
4 | 575 nm | O=c1cc(-c2ccc(O)c(O)c2)oc2cc(O)c([C@@H]3O[C@H](CO)[C@@H](O)[C@H](O)[C@H]3O)c(O)c12 [Isoorientin, luteolin 6-C-glucoside] | strong methyltransferase activity | 
5 |  | COc1cc(-c2[o+]c3cc(O)cc(O[C@@H]4O[C@H](CO)[C@@H](O)[C@H](O)[C@H]4O)c3cc2O[C@@H]2O[C@H](CO)[C@@H](O)[C@H](O)[C@H]2O)cc(OC)c1O [Malvin, malvidin 3,5-diglucoside] |  | Absorption maximum of malvin solution (λmax) ([1]; malvin alone, 0.5 mM, buffering solution pH 5.0): 529 nm
6 |  | COc1cc2oc(-c3ccc(O)c(O)c3)cc(=O)c2c(O)c1[C@@H]1O[C@H](CO)[C@@H](O)[C@H](O)[C@H]1O [Swertiajaponin, luteolin 7-methyl-6-C-glucoside] | strong methyltransferase activity | 

Row | Molecule | Absorption maximum of malvin solution upon addition of flavone C-glycoside (λmax) ([1]; buffering solution pH 5.0) | Methyltransferase activity of DN144 for the substrate [2] | further results
7 | COc1cc2oc(-c3ccc(O)cc3)cc(=O)c2c(O)c1[C@@H]1O[C@H](CO)[C@@H](O)[C@H](O)[C@H]1O [Swertisin, genkwanin 6-C-glucoside] | 579 nm |  | Produced compound [2]: Embigenin; Produced compound ([2]; listed as swertisin): conversion to embigenin was confirmed
